Laboratory results: US6699860B2, “Di-substituted aminomethyl-chroman derivative beta-3 adrenoreceptor agonists” (Bayer Pharmaceuticals Corporation, priority 2000, dated 2004)

Target: T1, human beta-3-adrenergic receptor (Homo sapiens, UniProt P13945)
T1 construct: Chinese hamster ovary (CHO) cells that stably express full-length human beta-3-adrenergic receptor; expressed in transfected cells
Test: cAMP production (SPA) in CHO cells stably expressing human beta-3-adrenergic receptor, agonist activity
Type: cell-based
Conditions: cAMP production in CHO cells expressing human beta-3-adrenergic receptor; compounds binned (≦1 μM or >1 μM); read-out: Beta-3 Agonistic Activity, EC50 values
Method: The cell line is grown in 90% F12 nutrient mixture (HAM), 10% fetal bovine serum, 100 units/ml penicillin G sodium, […] streptomycin sulfate, and 2 mM L-glutamine at 37° C. in 95% air and 5% CO2. The transfected cell line is maintained with G418 (800ug/ml).
To test agonist activity, cells are exposed to test compound and then assayed for cAMP production. […] Test compounds are assayed from 10 μM to 3 nM with 3-fold serial dilutions. The control agonist, isoproterenol (10 mM stock in 1.1 mM ascorbate), is assayed by 3-fold dilution beginning at 1 μM. Following a 30-minute incubation with the test compounds, the buffer/compound mixture is removed. […] The cAMP values are then plotted to ascertain the EC50 of each compound tested.

T1 sequence (P13945 whole entry): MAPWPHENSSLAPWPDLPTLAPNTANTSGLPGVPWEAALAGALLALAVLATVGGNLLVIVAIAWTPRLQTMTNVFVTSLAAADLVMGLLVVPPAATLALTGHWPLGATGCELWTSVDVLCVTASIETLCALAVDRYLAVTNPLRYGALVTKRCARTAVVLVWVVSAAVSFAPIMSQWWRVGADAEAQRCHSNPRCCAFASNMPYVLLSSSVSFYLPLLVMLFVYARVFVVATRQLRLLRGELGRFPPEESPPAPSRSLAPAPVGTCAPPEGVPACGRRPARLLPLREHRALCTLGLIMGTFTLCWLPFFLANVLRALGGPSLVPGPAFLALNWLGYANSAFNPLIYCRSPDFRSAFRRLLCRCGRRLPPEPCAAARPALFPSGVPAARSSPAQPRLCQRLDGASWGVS

Compound	EC50
COc1cccc(SC[C@@H](O)CNC[C@H]2CCc3cc(-c4ccc(C(=O)O)cc4)ccc3O2)c1 [Example 178]	> 1 µM
O=C(O)c1cc(-c2ccc3c(c2)CC[C@H](CNC[C@H](O)COc2ccccc2)O3)cs1 [Example 183]	≤ 1 µM
COCCOc1cc(-c2ccc3c(c2)CC[C@H](CNC[C@H](O)COc2ccccc2)O3)ccc1C(=O)O [Example 210]	≤ 1 µM
O=C(O)c1ccc(-c2ccc3c(c2)CC[C@H](CNC[C@H](O)COc2ccccc2)O3)cc1 [Example 142, 4-[(2R)-2-({[(2S)-2-Hydroxy-3-phenoxyropyl]amino}methyl)-3,4-dihydro-2H-chromen-6-yl]benzoic acid]	≤ 1 µM
O=C(O)c1ccc(-c2ccc3c(c2)CC[C@H](CNCC(O)COc2ccc(F)cc2)O3)cc1 (stereo partly drawn) [Example 232]	≤ 1 µM
O=C(O)c1ccc(-c2ccc3c(c2)CC[C@H](CNC[C@H](O)CSc2ccc(Cl)cc2)O3)cc1 [Example 173]	> 1 µM
CCOC(=O)c1nn(C)c(C)c1-c1ccc2c(c1)CC[C@H](CNC[C@H](O)COc1ccccc1)O2 [Example 131]	≤ 1 µM
O=C(O)c1ccc(-c2ccc3c(c2)CC[C@H](CNC[C@H](O)COc2cccc4[nH]c5ccccc5c24)O3)cc1 [Example 141, 4-[(2R)-2-({[(2S)-3-(9H-Carbazol-4-yloxy)-2-hydroxypropyl]amino}methyl)-3,4-dihydro-2H-chromen-6-yl]benzoic acid]	≤ 1 µM
O=C(O)c1ccc(-c2ccc3c(c2)CC[C@H](CNC[C@H](O)COc2ccccc2)O3)cc1-c1ccc(Cl)cc1 [Example 216]	≤ 1 µM
CC(C)Oc1cc(-c2ccc3c(c2)CC[C@H](CNC[C@H](O)COc2ccccc2)O3)ccc1C(=O)O [Example 211]	≤ 1 µM
CCc1ccc(SC[C@@H](O)CNC[C@H]2CCc3cc(-c4ccc(C(=O)O)cc4)ccc3O2)cc1 [Example 170]	> 1 µM
CC(C)c1sc(-c2ccc3c(c2)CC[C@H](CNC[C@H](O)COc2ccccc2)O3)nc1C(=O)O [Example 191]	≤ 1 µM
O=C(NC1CCCCC1)c1cc(-c2ccc3c(c2)CC[C@H](CNC[C@H](O)COc2ccccc2)O3)ccn1 [Example 96]	> 1 µM
CC(C)(C)c1ccc(-c2cc(-c3ccc4c(c3)CC[C@H](CNC[C@H](O)COc3ccccc3)O4)ccc2C(=O)O)cc1 [Example 220]	≤ 1 µM
O=C(O)c1ccc(-c2ccc3c(c2)CC[C@H](CNC[C@H](O)CSc2cccc(C(F)(F)F)c2)O3)cc1 [Example 180]	> 1 µM
COC(=O)c1cc(-c2ccc3c(c2)CC[C@H](CNC[C@H](O)COc2ccccc2)O3)cs1 [Example 133]	≤ 1 µM
O=C(O)CCc1ccc2c(c1)CC[C@H](CNC[C@H](O)COc1cccc(Cl)c1)O2 [Example 266]	> 1 µM
COC(=O)c1ccc2cc(-c3ccc4c(c3)CC[C@H](CNC[C@H](O)COc3ccccc3)O4)ccc2c1 [Example 103, methyl 6-[(2R)-2-({[(2S)-2-hydroxy-3-phenoxypropyl]amino}methyl)-3,4-dihydro-02H-chromen-6-yl]-2-naphthoate]	≤ 1 µM
CC(C)CNc1cc(-c2ccc3c(c2)CC[C@H](CNC[C@H](O)COc2ccccc2)O3)ccc1C(=O)O [Example 200]	≤ 1 µM
COc1ccc(SC[C@@H](O)CNC[C@H]2CCc3cc(-c4ccc(C(=O)O)cc4)ccc3O2)cc1 [Example 179]	> 1 µM
NC(=O)c1cc2c(OCC(O)CNC[C@H]3CCc4cc(CCC(=O)O)ccc4O3)cccc2[nH]1 (stereo partly drawn) [Example 270]	> 1 µM
O=C(O)c1csc(-c2ccc3c(c2)CC[C@H](CNC[C@H](O)COc2ccccc2)O3)c1 [Example 186]	≤ 1 µM
Cc1ccccc1OCC(O)CNC[C@H]1CCc2cc(-c3ccc(C(=O)O)cc3)ccc2O1 (stereo partly drawn) [Example 227]	≤ 1 µM
O=C(O)CCc1ccc2c(c1)CC[C@H](CNC[C@H](O)COc1ccc(F)cc1)O2 [Example 268]	≤ 1 µM
